Results as given in paper PMC4165891, “A Cell-Based High-Throughput Screen for Novel Chemical Inducers of Fetal Hemoglobin for Treatment of Hemoglobinopathies” (PLoS ONE, 2014).

What was measured:
[1] = test system: γ-globin promoter-firefly luciferase; test: γ-globin promoter-firefly luciferase induction in CID-dependent dual luc β-YAC BMCs (HTS and dose-response reconfirmation); assay type: cell-based, mouse; conditions: for responsiveness of dual luc β-YAC BMCs to known γ-globin inducers: data not shown; for fold induction of firefly luciferase by positive control: 2 mM, 24 hours, over DMSO treated controls, primary HTS plates
Description: For HTS experiments, the dual luc β-YAC BMCs were seeded into 384-well plates (Greiner Bio-One, Monroe, NC) at a density of 10,000 cells/30 µl/well by Wellmate bulk dispenser (ThermoScientific Inc., Waltham, MA) in complete media containing the CID, CL-COB-II-293 (synthesized by the University of Kansas COBRE CCET Core C Synthesis Lab, commonly called AP20187). The CID-dependent dual luc β-YAC BMCs were responsive to known γ-globin inducers including valproic acid, sodium butyrate, valeric acid and hydroxyurea (data not shown). Sodium butyrate (2 mM) was selected as the positive control for screening, as a consistent 5–6 fold increase in firefly luciferase activity was obtained in four independent experiments with four different passage numbers. Since both the cell viability and luciferase induction was unaffected at DMSO concentrations below 0.5%, the compound libraries were screened at 10 µM concentration in 0.35% DMSO. Compounds were transferred acoustically using a Labcyte Echo 550 dispenser (Labcyte Inc., Sunnyvale, CA). Based on previous optimizations, 10,000 cells/well in IMDM containing CL-COB-II-293 (100 nM) were added to the wells of 384-well assay plates. The negative (n = 16, DMSO) and positive (n = 16, sodium butyrate, 2 mM) controls were added to the first two columns of each plate to assure uniformity across plates and screening batches. The cells were exposed to compounds for 24 hours at 37°C, 5% CO2 in a 95% humidified incubator. After 24 hours incubation, Steady Glo luciferase detection reagent (Promega, Madison, WI) was used for cell lysis and generation of a luminescent signal, proportional to γ-globin promoter driven firefly luciferase reporter expression. The luminescence intensities were read 30 minutes later on a Tecan Safire2 microplate reader (Tecan, Männedorf, Switzerland). The luminescence values were used for calculating fold-induction of luciferase over DMSO treated controls. The controls were used to calculate a Z′ factor value for each plate, a measure of screening assay quality.
The active compounds from the primary screen were cherry-picked from mother plates and retested for firefly luciferase induction in an eight concentration dose-response assay (two fold dilution starting at 30 µM). The fold-induction values from dose-response curves were used for preliminary scaffold analysis and clustering using the Tripos Selector program and analyzed using the Jarvis Patrick routine, using default parameters [The Tripos Associates (Cetara), St. Louis, MO]. From each preliminary cluster, the largest conserved substructure present in at least half of the cluster members was identified.
Some of the primary screen active compounds were repurchased and tested for activity in cell-based assays using the primary screening reporter cells in a ten concentration dose-response. Both firefly luciferase induction (γ-globin promoter activation using the One-Glo luciferase detection system; Promega, Madison, WI), and Renilla luciferase induction (β-globin induction the using Renilla-Glo Luciferase detection system; Promega, Madison, WI), were measured for specificity of compound activity. The cytotoxicity of the compounds was measured after 24 hours in the same cells using Cell-Titer Glo reagent (Promega, Madison, WI). The compounds were also tested in a biochemical screen for any inhibition to purified firefly luciferase enzyme (15 nM).

[2] = test system: γ-globin (HbF)-expressing F cells; test: FACS analysis of HbF (F cells) in CID-dependent wild-type β-YAC BMCs; assay type: cell-based, mouse; conditions: 48 hours; NaB 2 mM; #7 50 µM; #42 15 µM; #87 100 µM; #125 30 µM; #157 100 µM; #208 25 µM; untreated 0.7%
From the text: (§1) Human erythroid progenitors were generated in vitro from adult CD34^+ stem cells (STEMCELL Technologies, Inc., Vancouver, Canada) using a 2-stage culture system that achieves terminal erythroid differentiation. Standard, but variant, methods for quantitative reverse transcription-PCR (qRT-PCR) and flow-activated cell sorting (FACS) were employed for the two cell types as detailed in File S1. ELISA was used to measure HbF in CID-dependent wild-type β-YAC BMCs as described in the supplement.
Flow-activated cell sorting (FACS). Detection of HbF in CID-dependent wild-type β-YAC BMCs was performed by flow cytometric analysis. Briefly, 3 x 10^6 cells were cultured for 48 hours with or without treatment. Cells were washed in PBS and fixed in 1 ml 4% fresh paraformaldehyde (Sigma Aldrich, Saint Louis, MO). The cells were centrifuged, the supernatant discarded, and the pellets were resuspended in 1 ml ice cold acetone:methanol (4:1) for 1 minute. Cells were washed twice in ice-cold PBS/0.1% BSA and resuspended in 100 μl PBS/0.1% BSA/0.01% Tween 20 (PBT). One μg sheep anti-human HbF FITC-conjugated antibody (A80-136F, Bethyl Laboratories, Montgomery, TX) in 100 μl PBT was added to the cell suspension and incubated for 40 minutes at room temperature. […] Cells were analyzed using a BD LSRII Flow Cytometer (BD Biosciences, San Jose, CA) with a 530/30 nm (FITC/GFP) emission filter . […]

[3] = test system: human γ-globin gene expression; test: qRT-PCR of γ-globin mRNA in CID-dependent wild-type β-YAC BMCs; assay type: cell-based, mouse; conditions: 48 hours; NaB 2 mM; #7 50 µM; #42 15 µM; #87 100 µM; #125 30 µM; #157 100 µM; #208 25 µM
From the text: as §1
Quantitative reverse transcription-PCR (qRT-PCR). In each experiment, treated and non-treated samples were analyzed in duplicate, 48 hours post-treatment, using SYBR Green dye in a CFX96 instrument (Bio-Rad, Hercules, CA). Expression of γ- and β-globin was calculated using relative quantification, as previously described, [7], using samples from β-YAC transgenic mice as controls. PCR primer sequences utilized for expression studies were: Hu-γ1, 5’-[…]-3’; Hu-γ2, 5’-[…]-3’; β-globin FWD, 5’-[…]-3’; β-globin REV, 5’-[…]-3’; Mo-Gapdh FWD, 5’-[…]-3’; Mo-Gapdh REV, 5’-[…]-3’; Mo-α-globin FWD, 5’-[…]-3’; Mo-α-globin REV, 5’-[…]-3’. Murine Gapdh and α-globin gene expression were used as internal controls for the human β-like globin gene expression. Mean and standard error of the mean were calculated. The Student’s t-test was used to determine statistical significance at P < 0.05 and P < 0.01.

[4] = test system: γ-globin to β-globin (γ/β) ratio; test: qRT-PCR γ-globin/β-globin mRNA ratio in human primary erythroid progenitors; assay type: cell-based; conditions: added day 8 for 48 hours; NaB 2 mM; #7 50 µM; #42 15 µM; #87 100 µM; #208 25 µM (Figure 6 legend)
From the text: as §1
Human primary erythroid cell culture. Human erythroid progenitors were generated in vitro from adult CD34^+ stem cells (STEMCELL Technologies, Inc., Vancouver, Canada) using a 2-stage culture system that achieves terminal erythroid differentiation. […] Cell viability was monitored by trypan blue (0.4%) exclusion. […]
Quantitative reverse transcription-PCR (qRT-PCR). The mRNA levels of γ-globin, β-globin, and glyceraldehyde-3-phosphate dehydrogenase (GAPDH) were measured as previously published, [10]. […] The γ-globin, β-globin, and GAPDH mRNA levels were quantitated by Sybergreen qPCR using an iCycler iQ instrument (BioRad, Hercules, CA); standard curves were generated using a Topo7-based plasmid carrying the γ-globin, β-globin, or GAPDH cDNAs (Topo7-γ-globin, Topo7-β-globin, or Topo7-GAPDH, respectively).

HbF-positive cells = test: FACS analysis of HbF-positive cells in human primary erythroid progenitors; assay type: cell-based; conditions: 48 hours
From the text: as §1
Human primary erythroid cell culture. Human erythroid progenitors were generated in vitro from adult CD34^+ stem cells (STEMCELL Technologies, Inc., Vancouver, Canada) using a 2-stage culture system that achieves terminal erythroid differentiation. Briefly, CD34^+ stem cells (500,000) were grown in First medium consisting of IMDM containing human AB serum, Interleukin-3 (IL-3,10 ng/ml), stem cell factor (SCF, 10 ng/ml) and erythropoietin (EPO, 2 IU/ml). On day 7 the erythroblasts were placed in Second medium consisting of 2 IU/mL erythropoietin for the duration of culture. […] Cell viability was monitored by trypan blue (0.4%) exclusion. […]
Flow-activated cell sorting (FACS). […] The labeled cells were analyzed using a Becton-Dickson LSR-II flow cytometer (BD Biosciences, San Jose, CA). […]

responsiveness of dual luc β-YAC BMCs to known γ-globin inducers [1]	Structure (SMILES)	% F cells (FACS, gate P3) [2] [%]	fold induction of firefly luciferase by positive control [1]	fold induction of firefly luciferase by positive control ([1]; listed as sodium butyrate) [fold]	γ-globin expression fold induction (qPCR) [3] [fold]	γ-globin to β-globin (γ/β) mRNA ratio fold increase compared to DMSO [4] [fold]	fold increase in % HbF-positive cells (HbF-positive cells) [fold]
responsive	CCCCC(=O)O [valeric acid]	–	–	–	–	–	–
responsive	CCCC(CCC)C(=O)O [valproic acid]	–	–	–	–	–	–
responsive	NC(=O)NO [hydroxyurea]	–	–	–	–	–	–

Structure (SMILES)	responsiveness of dual luc β-YAC BMCs to known γ-globin inducers [1]	% F cells (FACS, gate P3) [2] [%]	fold induction of firefly luciferase by positive control [1]	fold induction of firefly luciferase by positive control ([1]; listed as sodium butyrate) [fold]	γ-globin expression fold induction (qPCR) [3] [fold]	γ-globin to β-globin (γ/β) mRNA ratio fold increase compared to DMSO [4] [fold]	fold increase in % HbF-positive cells (HbF-positive cells) [fold]
CCCC(=O)[O-].[Na+] [Sodium butyrate]	responsive	15.9	5–6 fold	6.3±0.7	9.9	1.8	7
